The target in series [1] is T1, Prostaglandin G/H synthase 2 (Homo sapiens, UniProt P35354).
T1 sequence (P35354 whole entry): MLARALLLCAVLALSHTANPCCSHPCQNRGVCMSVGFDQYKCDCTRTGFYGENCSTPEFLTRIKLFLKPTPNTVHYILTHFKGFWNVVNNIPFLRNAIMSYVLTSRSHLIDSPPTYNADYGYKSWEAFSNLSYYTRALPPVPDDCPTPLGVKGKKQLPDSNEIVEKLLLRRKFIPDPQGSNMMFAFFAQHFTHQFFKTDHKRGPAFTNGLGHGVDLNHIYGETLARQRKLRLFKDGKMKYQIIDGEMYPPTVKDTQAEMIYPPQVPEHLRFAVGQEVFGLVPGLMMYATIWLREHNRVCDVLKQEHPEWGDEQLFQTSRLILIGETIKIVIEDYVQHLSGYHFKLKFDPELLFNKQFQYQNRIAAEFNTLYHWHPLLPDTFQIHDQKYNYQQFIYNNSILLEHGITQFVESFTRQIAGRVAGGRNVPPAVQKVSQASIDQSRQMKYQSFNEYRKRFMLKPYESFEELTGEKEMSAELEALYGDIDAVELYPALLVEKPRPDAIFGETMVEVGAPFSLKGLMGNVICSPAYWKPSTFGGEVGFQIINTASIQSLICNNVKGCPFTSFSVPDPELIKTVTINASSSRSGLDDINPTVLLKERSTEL
The series can be described thus: In vitro inhibition of PGE-2 produced by arachidonic acid-stimulated CHO cells stably expressing human Prostaglandin G/H synthase 2.

Series [2] has as its target Prostaglandin G/H synthase 1 (Homo sapiens, UniProt P23219). Nature of the series: Inhibition of Prostaglandin G/H synthase 1 was measured by the inhibition of PGE-2 produced by microsomes from U937 cells at subsaturating arachidonic acid conc. In kind it is cell-based, U-937.
The target of series [3] is T1, Prostaglandin G/H synthase 2.
Description: Inhibition of Prostaglandin G/H synthase 2 was measured by the inhibition of PGE-2 produced by lipopolysaccharide-challenged HWB
Series [4] concerns Rattus norvegicus. Nature of the series: In vivo potency at 10 mg/kg in the rat paw edema assay. In kind it is functional.
Series [5] is described as follows: Compound was evaluated for plasma concentration in rats when administered at 20 mg/kg in methocel at 2 hr. In kind it is ADME, organism-based. Further details: dose 20 mg/kg. To be noted: rat, read-out: Cmax.
Series [6] concerns Rattus norvegicus. Nature of the series: Efficacy in rat paw edema assay upon oral administration. In kind it is functional.
The subject of series [7] is Rattus norvegicus. The series can be described thus: Efficacy in rat pyresis assay upon oral administration. The series is classed as functional.
A short description of series [8]: Compound was evaluated for plasma concentration in rats when administered at 20 mg/kg in methocel at 0.5 hr. In kind it is ADME, organism-based. To be noted: rat, read-out: Cmax. On the set-up: dose 20 mg/kg.
Series [9] relates to Rattus norvegicus. Nature of the series: In vivo potency at 20 mg/kg in the rat paw edema assay. In kind it is functional.
Series [10] is described as follows: Compound was evaluated for plasma concentration in rats when administered at 20 mg/kg in methocel at 1 hr. The series is classed as ADME, organism-based. Further details: dose 20 mg/kg. To be noted: rat, read-out: Cmax.
For series [11], the system named is Rattus norvegicus. The series can be described thus: Compound was evaluated for efficacy in rat paw edema assay upon oral administration. In kind it is functional.
Series [12] concerns Rattus norvegicus. Nature of the series: In vivo inhibitory dose in adjuvant-induced arthritis in rats. In kind it is functional.
Series [13] has as its system Rattus norvegicus. Nature of the series: In vivo inhibitory dose in carrageenan-induced hyperalgesia in rats. In kind it is functional. To be noted: read-out: ID50 (the source's name).

Experimental findings from ChEMBL document CHEMBL1130609, “2-Pyridinyl-3-(4-methylsulfonyl)phenylpyridines: selective and orally active cyclooxygenase-2 inhibitors” (Bioorg Med Chem Lett, 1998) are described below.

Sequence of Prostaglandin G/H synthase 1 (P23219 whole entry): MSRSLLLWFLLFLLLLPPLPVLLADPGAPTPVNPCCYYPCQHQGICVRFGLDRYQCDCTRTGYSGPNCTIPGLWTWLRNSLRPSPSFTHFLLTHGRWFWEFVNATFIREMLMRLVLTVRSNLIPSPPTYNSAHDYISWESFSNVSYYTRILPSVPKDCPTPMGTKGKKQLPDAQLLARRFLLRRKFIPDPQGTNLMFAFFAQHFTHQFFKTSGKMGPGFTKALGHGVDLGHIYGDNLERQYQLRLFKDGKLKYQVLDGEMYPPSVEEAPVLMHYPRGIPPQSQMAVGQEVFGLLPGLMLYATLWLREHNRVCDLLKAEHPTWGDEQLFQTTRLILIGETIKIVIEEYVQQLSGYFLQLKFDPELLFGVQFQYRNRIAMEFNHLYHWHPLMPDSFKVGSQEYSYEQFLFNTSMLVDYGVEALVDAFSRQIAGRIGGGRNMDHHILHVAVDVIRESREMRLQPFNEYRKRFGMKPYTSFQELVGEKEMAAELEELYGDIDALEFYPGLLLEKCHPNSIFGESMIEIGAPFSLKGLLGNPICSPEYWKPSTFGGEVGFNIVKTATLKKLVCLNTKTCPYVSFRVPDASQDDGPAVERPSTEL

As to `Cc1cnc(-c2cccnc2)c(-c2ccc(S(C)(=O)=O)cc2)c1`, the values for the IC50 in series [1], in series [2] and in [3] were 350 nM, 59000 nM and 2100 nM, respectively.
In the same order, the values of `CS(=O)(=O)c1ccc(-c2cccnc2-c2cccnc2)cc1` are 610 nM, above 100000 nM and above 33000 nM.
For `COc1nc(-c2ccc(F)cc2)c(-c2ccc(S(C)(=O)=O)cc2)cc1C#N`, at 10 mg/kg the inhibition in vivo in the series on Rattus norvegicus [4] was 16%.
With `Cc1ccc(-c2ncc(Cl)cc2-c2ccc(S(N)(=O)=O)cc2)cn1`, the results for the concentration for half-maximal inhibition (IC50) in series [1], in series [2] and in series [3] were 23 nM, 800 nM and 2400 nM, respectively.
The like results for `Cc1ccncc1-c1ncc(Cl)cc1-c1ccc(S(C)(=O)=O)cc1` were, in that order, 830 nM, above 100000 nM and 2700 nM.
As for `CS(=O)(=O)c1ccc(-c2cc(C(F)(F)F)cnc2-c2cccnc2)cc1`, the concentration at 2 h in [5] was 24 µM. Also, 31000 nM corresponded to half-maximal inhibition in series [2] (IC50). The figures for the ED50 with Rattus norvegicus [6] and in the series with Rattus norvegicus [7] were 1.7 mg/kg and 1.4 mg/kg, respectively.
Take `CS(=O)(=O)c1ccc(-c2cc(Cl)cnc2-c2ccncc2)cc1`: in [2], half-maximal inhibition (IC50) required 81000 nM.
As to `CS(=O)(=O)c1ccc(-c2cc(Cl)cnc2-c2cccnc2)cc1`, the concentration at 2 h in series [5] worked out at 52 µM. The 50% inhibitory concentration (IC50) – broadly, the concentration that inhibits the measured activity by half – came to 34 nM in [1], 19000 nM in series [2] and 900 nM in [3]. Also, the results for the ED50 in the series with Rattus norvegicus [6] and with Rattus norvegicus [7] were 2.3 mg/kg and 0.8 mg/kg, respectively.
Consider `CS(=O)(=O)c1ccc(-c2cc(Cl)cnc2-c2ccccn2)cc1`, for which the concentration for half-maximal inhibition (IC50) in series [1] is 68 nM; in series [2], 63000 nM; in series [3] it was 5800 nM.
For the compound `CS(=O)(=O)c1ccc(-c2cc(Cl)cnc2-c2ccc(C3CC3)nc2)cc1`, the concentration at 2 h in series [5] was 9 µM. Further, the 50% inhibitory concentration (IC50) was 16 nM in series [1] and 6000 nM in [2]. Besides, the figures for the ED50 in the series on Rattus norvegicus [6] and with Rattus norvegicus [7] were 2 mg/kg and 4.9 mg/kg, respectively.
Regarding `CCc1ccc(-c2ncc(Cl)cc2-c2ccc(S(C)(=O)=O)cc2)cn1`, the concentration at 0.5 h in series [8] came to 9 µM. In addition, the half-maximal inhibitory concentration (IC50) in series [2] worked out at 13000 nM. The ED50 in the series with Rattus norvegicus [6] amounted to 1.6 mg/kg; with Rattus norvegicus [7], 2.6 mg/kg.
`COc1cc(-c2ccc(S(C)(=O)=O)cc2)c(-c2ccc(F)cc2)c(C(F)(F)F)n1`: the inhibition in vivo (usually the relative decrease from the control value, in per cent) at 20 mg/kg with Rattus norvegicus [9] turned out to be 12%.
On to `CS(=O)(=O)c1ccc(-c2cccnc2-c2ccccc2)cc1`, for which the concentration at 0.5 h in series [8] turned out to be 40 µM. The compound further yielded an IC50 in series [2] of 20000 nM. Besides, the ED50 with Rattus norvegicus [6] was above 10 mg/kg.
For `Cc1cncc(-c2ncc(Cl)cc2-c2ccc(S(C)(=O)=O)cc2)c1`, the concentration for half-maximal inhibition (IC50) in series [1] was 87 nM; in series [2], above 100000 nM; in series [3] it was 3800 nM.
Turning to `Cc1ncccc1-c1ncc(Cl)cc1-c1ccc(S(C)(=O)=O)cc1`, the concentration for half-maximal inhibition (IC50) in series [1] came out at 1330 nM; in [2], 45000 nM; in series [3], 2600 nM.
For the compound `CS(=O)(=O)c1ccc(-c2cc(Br)sc2-c2ccc(F)cc2)cc1` [DUP-697], the ED50 in the series with Rattus norvegicus [6] was found to be 1.3 mg/kg.
As to `Cc1ccc(-c2ncc(Cl)cc2-c2ccc(S(C)(=O)=O)cc2)cn1` [ETORICOXIB], in [10], the concentration at 1 h is 30 µM. Also, in [2], the half-maximal inhibitory concentration (IC50) amounted to 12000 nM. Moreover, the ED50 in the series on Rattus norvegicus [6] amounted to 0.6 mg/kg; with Rattus norvegicus [7] it was 0.5 mg/kg.
For the compound `COc1ccc2c(c1)c(CC(=O)O)c(C)n2C(=O)c1ccc(Cl)cc1` [INDOMETHACIN], the figures for the ED50 in the series with Rattus norvegicus [11], in the series with Rattus norvegicus [7] and in the series on Rattus norvegicus [13] were 2 mg/kg, 1.1 mg/kg and 1.5 mg/kg, respectively. Moreover, the ID50 in the series with Rattus norvegicus [12] is given as 0.2 mg kg-1 day-1 b.i.d.
